The text below walks through data of patent publication US12691114B2, “Compositions for inhibition of herpesviruses” (The Medical College of Wisconsin, Inc., priority 2020, dated 2026).

One assay deals with HCMV TB40. Nature of the assay: Drug combination with letermovir, plaque assay TB40, Bliss model. To be noted: read-out: EC50 (μM) of Compound 2. The class given is cell-based, human cytomegalovirus. Here is the method: Drug combination and analysis: These experiments were performed as previously reported^40. The combination of GCV and each compound was tested using the pp28-luciferase. Briefly, 2×10^6 HFFs/plate were seeded in 96-well plates and infected with the pp28-luciferase Towne HCMV strain (MOI=1). First, a dose response curve was generated for each drug individually to determine its EC50. Then, drugs were combined at twice their EC50, diluted in DMEM with 4% FBS, followed by serial dilution and added together after infection. Luciferase activity of the combination and each drug individually was quantified at 72 hpi. The combination of letermovir and each of the new compounds was tested by the plaque assay using TB40. The same principle applied in this assay for the drug combination effect, and plaques were counted at 8 dpi. The Bliss model was used to calculate the effect of each drug combination on pp28-luciferase activity and plaque reduction. In this model, drug combination represents the product of two probabilistically independent events as described in the following equation^41.
[formula] Where D is the drug concentration, m is the slope, and EC50 is the effective concentration resulting in 50% virus inhibition. The combined effect of two inhibitors (Fu, fractional unaffected) is computed as the product of individual effects of the two inhibitors, Fu1 and Fu2. If the ratio of observed fold inhibition divided by the expected fold inhibition is greater than 1, the compounds are synergistic. If the ratio is less than 1, the combination is considered antagonistic, and if it equals to 1 the combination is additive.
Pattern of drug combination with GCV and letermovir: The effect of each compound alone or in combination with GCV or letermovir was tested in HCMV-infected HFFs. […] A ratio of observed fold inhibition divided by the expected fold inhibition of >1 was considered drug synergy, <1 as drug antagonism, and =1 as additive. For letermovir and its combination with each of the five compounds the EC50 was determined based on plaque assay. The combination of GCV and 2955 was also tested by plaque assay. All other combinations and Bliss coefficients were measured by pp28- luciferase.

Assay [1] addresses HCMV Towne (pp28-luciferase). The assay is described as follows: pp28-luciferase HCMV Towne assay in HFFs, luciferase activity at 72 hpi. The class given is cell-based, human cytomegalovirus. From the text: (§1) A GCV-resistant HCMV pp28-luciferase that contains a C607Y mutation in UL97 was reported^37. The HCMV TB40 strain was obtained from ATCC (VR-1578). Clinical isolates of Human Herpesvirus 1 and 2 (HSV1, HSV2) were collected from the Johns Hopkins Microbiology laboratory without identifiers that could link them to a specific patient. Mouse CMV (MCMV) Smith strain (ATCC VR-1399) was used for infection of MEFs.
(§2) Luciferase activity: Cell lysates were collected at 72 hpi and luciferase activity was determined using the Glomax-Multi+Detection System (Promega, Madison, WI) as described previously^20.
(§3) HCMV inhibition was measured by luciferase activity of pp28-recombinant Towne and pp28 GCV-resistant Towne strains of HCMV (72 hpi) and by plaque reduction using HCMV Towne or TB40 (10 days). Viral protein expression was measured by Western blot.

Assay [2] has as its system Mouse CMV (MCMV) Smith strain. The assay is described as follows: Plaque assay, mouse CMV in MEFs. The class given is cell-based, mouse cytomegalovirus. As to conditions: plaque reduction; for EC50: MEFs, NA = Not active.
From the text: as §1, with “Viruses and antiviral assays: A recombinant pp28-luciferase Towne HCMV strain expressing luciferase under the control of the UL99 (pp28) late promoter was reported to provide a highly-sensitive and reproducible reporter for drug screening^20. A GCV-resistant” for “A GCV-resistant”
Plaque reduction assay: HFFs were seeded into 12-well plates (2×10^5 cells/well) and infected with HCMV TB40 at approximately 100 plaques/well. After 90 min, media were aspirated, and DMEM containing 0.5% carboxymethyl-cellulose (CMC), 4% fetal bovine serum (FBS), and drugs were added into duplicate wells. Following incubation at 37° C. for 10-12 days the overlay was removed, and plaques were counted after crystal violet staining. For HSV1 and HSV2 replication in Vero cells, the adsorption time was 60 min and plaques were counted after 36 h. Plaque assays in MEFs were completed after 3 days.
Inhibition of other herpesviruses: Inhibition of herpes simplex 1 and 2 (HSV1, HSV2), Epstein Barr virus (EBV) and mouse CMV (MCMV) was tested with the five compounds. Plaque reductions assays were used for HSV1, HSV2 and MCMV. Inhibition of lytic EBV replication was measured by real-time PCR in AKATA cells following IgG induction. Only MLS8554 was active against HSV1, HSV2 and MCMV (Table 2).

Assay [3] concerns GCV-resistant HCMV Towne (C607Y mutation in UL97). Nature of the assay: microbe, parasite or virus in culture. The class given is cell-based, human cytomegalovirus.
From the text: as §1, §2, §3

In assay [4] the test system is HCMV Towne viral proteins (IE1/2, pp65, UL84, UL44). The assay is described as follows: Immunoblot of viral protein expression in infected HFFs. The class given is cell-based, human cytomegalovirus. To be noted: HCMV Towne MOI of 1 PFU/cell, 72 hpi. Here is the method:
SDS-polyacrylamide gel electrophoresis and immunoblot analysis: Cell lysates containing equal amount of proteins were mixed with an equal volume of sample buffer (125 mM Tris-HCL, pH 6.8, 4% SDS, 20% glycerol and 5% β-mercaptoethanol) and boiled at 100° C. for 10 min. Denatured proteins were resolved in Tris-glycine polyacrylamide gels (8-10%) and transferred to polyvinylidine difluoride (PVDF) membranes (Bio-Rad Laboratories, Hercules, CA) by electroblotting. Membranes were incubated in blocking solution [5% w/v non-fat dry milk and 0.1% Tween-20 in PBS (PBST)] for 1 h, washed with PBST, and incubated with primary antibodies at 4° C. overnight. Membranes were washed with PBST and incubated with horseradish peroxidase-conjugated secondary antibodies in PBST for 1 h at room temperature. Following washing with PBST, protein bands were visualized by chemiluminescence using SuperSignal West Dura and Pico reagents (Pierce Chemical, Rockford, IL).
Antibodies: The following antibodies were used—Mouse monoclonal anti-HCMV IE1 & IE2 (MAB810, Millipore, Billerica, MA), mouse monoclonal anti-HCMV UL83 (pp65, Vector Laboratories Inc., Burlingame, CA), mouse monoclonal anti-HCMV UL44, mouse monoclonal anti-HCMV UL84, and mouse anti-β-actin anti-mouse IgG (Santa Cruz Biotechnology, Santa Cruz, CA). Horseradish peroxidase (HRP)-conjugated anti-mouse IgG was from GE Healthcare (Waukesha, WI). Horseradish peroxidase (RP)-conjugated anti-rabbit IgG was from Cell Signaling (Beverly, MA).

Where [5] appears, read: combination experiment with Letermovir.
The mark [6] stands for this setting: pp28-luciferase Towne, HFFs, 72 hpi, read-out: EC50—Towne.
Where [7] appears, read: pp28 GCV-resistant Towne, luciferase, 72 hpi, read-out: EC50—GCVR Towne.
[8] abbreviates: Human betaherpesvirus 5, combination experiment with Letermovir.
Where [9] appears, read: Human betaherpesvirus 5, read-out: EC50—Towne (μM).

Molecules are shown by their SMILES. Where two headings read alike, the source gives them in different places.

For orientation: EC50 means the midpoint of the concentration-response curve. On to `Nc1c(S(=O)(=O)c2cccs2)c2nc3ccccc3nc2n1Cc1ccccc1` [MLS8091], for which the EC50 was 0.13 ± 0.05 µM in the assay on HCMV TB40 (setting [5]), 0.39 µM in assay [1] (setting [6]) and 0.26 ± 0.02 µM in assay [3] (setting [7]). The “activity against MCMV, in words” value in assay [2] was “no activity”. The “viral protein expression by Western blot, in words” value (“viral protein expression” below) in assay [4] was “Inhibition of all viral proteins”.
As for `CCN1CCN(CCCNC(=O)c2ccc3c(c2)sc2nc(-c4ccc(OC)cc4)cn23)CC1` [NFU1827, N-[3-(4-ethylpiperazin-1-yl)propyl]-4-(4-methoxyphenyl)-7-thia-2,5-diazatricyclo [6.4.0.02,6] dodeca-1(8),3,5,9,11-pentaene-10-carboxamide], the 50% effective concentration (EC50) in the assay with HCMV TB40 (setting [8]) amounted to 0.69 ± 0.07 µM; in assay [1] (setting [9]), 0.85 ± 0.1 µM; in assay [3] (Human betaherpesvirus 5, read-out: EC50—GCVR Towne (μM)), 0.84 ± 0.1 µM. Besides, the “activity against MCMV, in words” value in assay [2] was “no activity”. Also, in assay [4], the “viral protein expression” value was “reduced the level of both IE1 and IE2”.
Regarding `CCc1ccc(NC(=O)[C@H](Cc2c[nH]c3ccccc23)NC(=O)[C@@H]2Cc3ccccc3CN2)cc1` [MLS8554], the EC50 in the assay on HCMV TB40 (setting [5]) was found to be 0.14 ± 0.02 µM; in assay [1] (setting [6]), 0.64 ± 0.1 µM; in assay [2], 11.7 ± 2 µM; in assay [3] (setting [7]), 0.17 µM. In addition, in assay [1] (all the HCMV strains used), the “anti-HCMV activity, in words” value is “active”. In addition, the “activity against MCMV, in words” value in assay [2] was “active”. The “activity against GCV-resistant HCMV, in words” value in assay [3] is on record as “active”. The “viral protein expression” value in assay [4] is “reduced expression of IE2, UL44, UL84 and pp65”.
In the case of `CC(C)NC(=O)C1CCN(C(=O)c2cc3sccc3n2Cc2ccc(Cl)cc2)CC1` [NCGC2955, 1-(4-(4-chlorobenzyl)-4H-thieno[3,2-b]pyrrole-5-carbonyl)-N-isopropylpiperidine-4-carboxamide], the concentration for a half-maximal effect (EC50) in the assay with HCMV TB40 (setting [8]) came out at 3.19 ± 0.17 µM; in assay [1] (setting [9]), 4.61 ± 1.4 µM; in assay [2] (Murid betaherpesvirus 1), 1 µM. For the same compound, in assay [1] (compound after infection, MOI of 1 PFU/cell, 72 hpi), the “inhibition of luciferase activity, in words” value is “did not show a full dose response”. Also, the “activity against GCV-resistant HCMV, in words” value in assay [3] is reported as “inhibited”. Also, the “viral protein expression” value in assay [4] is “strong reduction in viral protein expression including IE1 and IE2”.
